Structures can show the parent of a compound that is named as a salt.
What was measured:
Format in all cases: in vivo
[1] = tested on: Male Slc-ddy mice; test: Inhibitory effect on the motor coordination (rotating rod test); conditions: for Inhibitory effect on motor coordination Effect: 300 - 600 mg/10 ml/kg oral, 30 min, compared with eperisone hydrochloride; for Inhibitory effect on motor coordination Durability / ED50 / inhibitory effect on the motor coordination compared with eperisone hydrochloride: oral; for ED50: Mus musculus, 0.5 h, rotating rod 30 min after administration, falling off within 60 s counted as positive, 95% confidence limit in brackets, read-out: ED₅₀ values for the inhibitory effect on the motor coordination
Description: Male Slc-ddy mice of 20 - 25 g (5 weeks old) were used in groups of 7 - 10. The test compounds were used dissolved or suspended in 0.5 % CMC or 0.5 % Tween 80 solution. Each test compound (300 - 600 mg/10 ml/kg) was orally administered to the mice, and after 30 min the mice were put on a 3-cm diameter rod rotating at a speed of 10 min⁻¹ in a direction opposite to the rotation direction, and the time of staying on it was measured to a maximum of 180 s. Those falling off of the rotating rod within 60 s were judged as having an inhibitory effect on the motor coordination and, with the number of cases as index, comparison was made with the reference compound (eperisone hydrochloride).
The mice were trained in advance to be able to stay on the rotating rod for more than 300 s, and those capable of staying on it for more than 250 s immediately before testing were used.

[2] = Acute toxicity test; conditions: mouse, in vivo, po, mice, observation for 7 days, Litchfield-Wilcoxon, 95% confidence limit in brackets, read-out: LD₅₀ values (50% of lethal dose)
Description: Male ddy mice of 20-30 g were used as test animals in groups of 5-10. The test compounds were dissolved or suspended in 0.5 % Tween 80 aqueous solution, and orally administered to the mice. Observation was made for 7 days after administration. The LD₅₀ values (50% of lethal dose) (95% confidence limit) were determined by the Litchfield-Wilconxon method, and are shown in Table 4.

[3] = tested on: Male Slc-ddy mice; test: Anti-nicotinic effect (survival after intravenous nicotine bitartrate); conditions: for Anti-nicotinic effect Effect: 30 min, compared with eperisone hydrochloride
Description: Experimental Method of Male Slc-ddy mice/30 - 35 g (6 weeks old) were used as test animals in groups of 7 - 10. The test compounds (100 mg/10 ml/kg) were orally administered to the mice, and after 30 min, nicotine bitartrate (3 mg/10 ml/kg) was administered intravenously, and the number of animals killed due to tonic convulsion was counted. The surviving animals were judged as having an anti-nicotinic effect, and with the number thereof as index the comparison concerning the anti-nicotinic effect was made with the reference compound (eperisone hydrochloride).

[4] = tested on: Male Slc-ddy mice; test: Anti-strychnine effect (time from tonic convulsions to death after subcutaneous strychnine nitrate); conditions: for Anti-strychnine effect Effect: 30 min, compared with eperisone hydrochloride
Description: Strychnine is known to enhance reflex stimulation, among others, of spinal cord to induce convulsions. If this effect of strychnine can be suppressed by administration of any of the above-mentioned compounds, this compound is expected to have a central muscle relaxation effect.
Male Slc-ddy mice of 25 - 30 g (5 weeks old) were used in groups of 7 - 10.
The test compounds (100 mg/10 ml/kg) were orally administered to the mice, and after 30 min, 1.5 mg/10 ml/kg of strychnine nitrate was administered subcutaneously, and the time was measured from the occurence of tonic convulsions to the death of the animals. Cases in which this time was extended to 6 min or more were judged as corresponding to an anti-strychnine effect, and with the number of such cases as index, comparison was made with the reference compound (eperisone hydrochloride). […] The ED₅₀ values (95% confidence limit) for the anti-strychnine effect were determined by the Litchfield-Wilcoxon method and are shown in Table 3.

CCc1ccc(C(=O)C(C)CN2CCN(CC(C)C(=O)c3ccc(CC)cc3)CC2)cc1.Cl.Cl (stereo not shown) [Compound 1, N,N'-bis[2-(4-ethylbenzoyl)-propyl]-piperazine dihydrochloride]
Inhibitory effect on motor coordination Effect [1]: 0 | Inhibitory effect on motor coordination Durability [1]: -

CCc1ccc(C(=O)C(C)Cn2ccnc2)cc1 (stereo not shown) [Compound 2, 1-(4-ethylphenyl)-3-(1H-imidazol-1-yl)-2-methylpropan-1-one]
LD50 at 168 h [2]: 218 mg/kg | Inhibitory effect on motor coordination Effect [1]: 0 | ED50 [1]: 200 mg/kg | inhibitory effect on the motor coordination compared with eperisone hydrochloride [1]: stronger inhibitory effect on the motor coordination than eperisone hydrochloride | anti-nicotinic effect compared with eperisone hydrochloride ([3]; 100 mg/10 ml/kg oral): stronger anti-nicotinic effect than eperisone hydrochloride | Anti-nicotinic effect Effect ([3]; 100 mg/10 ml/kg oral): ◎ | ED50 ([3]; Mus musculus, 0.5 h, oral, nicotine bitartrate 3 mg/10 ml/kg i.v. after 30 min, Litchfield-Wilcoxon, 95 % confidence limit in brackets, read-out: ED₅₀ values for the anti-nicotinic effect): 26 mg/kg | ED50 ([4]; Mus musculus, po, 0.5 h, read-out: ED₅₀ values for the anti-strychnine effect): 135 mg/kg | anti-strychnine effect compared with eperisone hydrochloride ([4]; mice, 100 mg/10 ml/kg oral): stronger anti-strychnine effect than eperisone hydrochloride | Anti-strychnine effect Effect ([4]; mice, 100 mg/10 ml/kg oral): ◎

CC(Cn1ccnc1)C(=O)c1ccc(Cl)cc1 (stereo not shown) [Compound 3, hydrochloride]
Inhibitory effect on motor coordination Effect [1]: 0 | Anti-nicotinic effect Effect ([3]; 100 mg/10 ml/kg oral): 0

CCc1ccc(C(=O)C(CC)CN2CCCCC2)cc1.Cl (stereo not shown) [Compound 4, 2-ethyl-1-(4-ethylphenyl)-3-piperidinopropan-1-one hydrochloride]
Inhibitory effect on motor coordination Effect [1]: 0 | Inhibitory effect on motor coordination Durability [1]: - | Anti-nicotinic effect Effect ([3]; 100 mg/10 ml/kg oral): 0

CCc1ccc(C(=O)C(CN2CCCCC2)C(C)C)cc1 (stereo not shown) [Compound 5, 1-(4-ethylphenyl)-2-isopropyl-3-piperidinopropan-1-one]
Inhibitory effect on motor coordination Effect [1]: 0 | Inhibitory effect on motor coordination Durability [1]: - | Anti-nicotinic effect Effect ([3]; 100 mg/10 ml/kg oral): 0

CCc1ccc(C(=O)C(C)(C)CN2CCCCC2)cc1 [Compound 6, 1-(4-ethylphenyl)-2,2-dimethyl-3-piperidinopropan-1-one]
Inhibitory effect on motor coordination Effect [1]: ◎ | Anti-nicotinic effect Effect ([3]; 100 mg/10 ml/kg oral): 0

CCc1ccc(C(=O)C(CN2CCCCC2)c2ccccc2)cc1.Cl (stereo not shown) [Compound 7, 1-(4-ethylphenyl)-2-phenyl-3-piperidinopropan-1-one hydrochloride]
Inhibitory effect on motor coordination Effect [1]: 0 | Inhibitory effect on motor coordination Durability [1]: - | Anti-nicotinic effect Effect ([3]; 100 mg/10 ml/kg oral): 0

CC(Cn1ccnc1)C(=O)c1ccccc1 (stereo not shown) [Compound 8, 3-(1H-imidazol-1-yl)-2-methyl-1-phenyl-propan-1-one]
Inhibitory effect on motor coordination Effect [1]: 0

CCCc1ccc(C(=O)C(C)Cn2ccnc2)cc1 (stereo not shown) [Compound 9, 3-(1H-imidazol-1-yl)-2-methyl-1-(4-n-propylphenyl)-propan-1-one]
Inhibitory effect on motor coordination Effect [1]: 0 | Anti-nicotinic effect Effect ([3]; 100 mg/10 ml/kg oral): ◎

CC(Cn1ccnc1)C(=O)c1ccc(C(C)C)cc1 (stereo not shown) [Compound 10, 3-(1H-imidazol-1-yl)-1-(4-isopropylphenyl)-2-methylpropan-1-one]
Inhibitory effect on motor coordination Effect [1]: 0 | Anti-nicotinic effect Effect ([3]; 100 mg/10 ml/kg oral): 0

CC(Cn1ccnc1)C(=O)c1ccc(C(C)(C)C)cc1 (stereo not shown) [Compound 11, 1-(4-t-butylphenyl)-3-(1H-imidazol-1-yl)-2-methylpropan-1-one]
Inhibitory effect on motor coordination Effect [1]: 0 | Anti-strychnine effect Effect ([4]; mice, 100 mg/10 ml/kg oral): 0

CC(Cn1ccnc1)C(=O)c1ccc(-c2ccccc2)cc1 (stereo not shown) [Compound 12, 1-(4-biphenyl)-3-(1H-imidazol-1-yl)-2-methylpropan-1-one]
Inhibitory effect on motor coordination Durability [1]: - | Anti-nicotinic effect Effect ([3]; 100 mg/10 ml/kg oral): ◎

Cc1ccc(C(=O)C(C)Cn2ccnc2)c(C)c1.Cl (stereo not shown) [Compound 13, 3-(1H-imidazol-1-yl)-2-methyl-1-(2,4-dimethylphenyl)-propan-1-one hydrochloride]
Inhibitory effect on motor coordination Effect [1]: 0 | Inhibitory effect on motor coordination Durability [1]: - | Anti-nicotinic effect Effect ([3]; 100 mg/10 ml/kg oral): ◎

CC(Cn1ccnc1)C(=O)c1ccc2ccccc2c1 (stereo not shown) [Compound 15, 3-(1H-imidazol-1-yl)-2-methyl-1-(2-naphthyl)-propan-1-one]
Inhibitory effect on motor coordination Effect [1]: 0 | ED50 [1]: 152 mg/kg | Inhibitory effect on motor coordination Durability [1]: - | inhibitory effect on the motor coordination compared with eperisone hydrochloride [1]: stronger inhibitory effect on the motor coordination than eperisone hydrochloride | Anti-nicotinic effect Effect ([3]; 100 mg/10 ml/kg oral): ◎ | Anti-strychnine effect Effect ([4]; mice, 100 mg/10 ml/kg oral): ◎

Cc1ccc(C(=O)C(C)Cn2ccnc2)cc1 (stereo not shown) [Compound 16, 3-(1H-imidazol-1-yl)-2-methyl-1-(4-methylphenyl)-propan-1-one]
Inhibitory effect on motor coordination Effect [1]: ◎ | Anti-nicotinic effect Effect ([3]; 100 mg/10 ml/kg oral): ◎

CCc1ccc(C(=O)CCn2ccnc2)cc1 [Compound 17, 1-(4-ethylphenyl)-3-(1H-imidazol-1-yl)-propan-1-one]
Inhibitory effect on motor coordination Effect [1]: ○ | Inhibitory effect on motor coordination Durability [1]: - | Anti-nicotinic effect Effect ([3]; 100 mg/10 ml/kg oral): ○

CCc1ccc(C(=O)C(CC)Cn2ccnc2)cc1.Cl (stereo not shown) [Compound 18, 2-ethyl-1-(4-ethylphenyl)-3-(1H-imidazol-1-yl)-propan-1-one hydrochloride]
Inhibitory effect on motor coordination Effect [1]: ◎ | Anti-nicotinic effect Effect ([3]; 100 mg/10 ml/kg oral): ◎

CCc1ccc(C(=O)C(Cn2ccnc2)c2ccccc2)cc1 (stereo not shown) [Compound 19, 1-(4-ethylphenyl)-3-(1H-imidazol-1-yl)-2-phenylpropan-1-one]
Inhibitory effect on motor coordination Effect [1]: ◎ | Inhibitory effect on motor coordination Durability [1]: - | Anti-nicotinic effect Effect ([3]; 100 mg/10 ml/kg oral): ◎

CC(Cn1ccnc1)C(=O)c1ccc2c(c1)Cc1ccccc1-2 (stereo not shown) [Compound 20, 1-(9H-fluoren-2-yl)-3-(1H-imidazol-1-yl)-2-methylpropan-1-one]
Inhibitory effect on motor coordination Effect [1]: ◎ | Inhibitory effect on motor coordination Durability [1]: - | Anti-nicotinic effect Effect ([3]; 100 mg/10 ml/kg oral): ◎ | Anti-strychnine effect Effect ([4]; mice, 100 mg/10 ml/kg oral): ○

CCc1ccc(C(=O)C(C)n2ccnc2)cc1.Cl (stereo not shown) [Compound 21, 1-(4-ethylphenyl)-2-(1H-imidazol-1-yl)-propan-1-one hydrochloride]
Inhibitory effect on motor coordination Durability [1]: - | Anti-nicotinic effect Effect ([3]; 100 mg/10 ml/kg oral): ◎

CCc1ccc(C(O)C(C)Cn2ccnc2)cc1 (stereo not shown) [Compound 22, 1-(4-ethylphenyl)-3-(1H-imidazol-1-yl)-2-methylpropan-1-ol]
Inhibitory effect on motor coordination Effect [1]: ◎ | inhibitory effect on the motor coordination compared with eperisone hydrochloride [1]: stronger inhibitory effect on the motor coordination than eperisone hydrochloride | Anti-nicotinic effect Effect ([3]; 100 mg/10 ml/kg oral): ◎ | Anti-strychnine effect Effect ([4]; mice, 100 mg/10 ml/kg oral): ○

CCc1ccc(C(=O)C(CN2CCCC2)c2ccccc2)cc1.Cl (stereo not shown) [Compound 24, 1-(4-ethylphenyl)-2-phenyl-3-(pyrrolidin-1-yl)-propan-1-one hydrochloride]
Inhibitory effect on motor coordination Effect [1]: ○ | Anti-nicotinic effect Effect ([3]; 100 mg/10 ml/kg oral): ○

CC(C)(CN1CCCC1)C(=O)c1ccc(Cl)cc1 [Compound 25, 1-(4-chlorophenyl)-2,2-dimethyl-3-(pyrrolidin-1-yl)-propan-1-one]
Inhibitory effect on motor coordination Effect [1]: ◎ | Anti-nicotinic effect Effect ([3]; 100 mg/10 ml/kg oral): ○

CCc1ccc(C(=O)C(C)Cn2ccnc2C)cc1 (stereo not shown) [Compound 26, 1-(4-ethylphenyl)-2-methyl-3-(2-methyl-1H-imidazol-1-yl)-propan-1-one]
Inhibitory effect on motor coordination Effect [1]: ◎ | Inhibitory effect on motor coordination Durability [1]: - | Anti-nicotinic effect Effect ([3]; 100 mg/10 ml/kg oral): ◎

CCc1ccc(C(=O)C(C)Cn2cncn2)cc1 (stereo not shown) [Compound 27, 1-(4-ethylphenyl)-2-methyl-3-(1H-1,2,4-triazol-1-yl)-propan-1-one]
Inhibitory effect on motor coordination Effect [1]: ○ | Inhibitory effect on motor coordination Durability [1]: - | Anti-nicotinic effect Effect ([3]; 100 mg/10 ml/kg oral): ○

Source: patent EP0423524A2, “Propiophenone derivatives and their preparation and pharmaceutical use” (MARUHO Co., Ltd., priority 1989, dated 1991)
